Measurements from US20080085867A1, “Early detection and prognosis of colon cancers” (The Johns Hopkins University, priority 2006, published 2008).

What was measured:
HCT116 cells = test: Microarray gene expression of drug-treated cells versus mock-treated cells; type: cell-based, human; details: for expression response of the 11 hypermethylated guide genes: 300 nM TSA 18 hours or 5 μM DAC 96 hours
Method: Cell culture and treatment. HCT116 cells and isogenic genetic knockout derivatives were maintained as previously described (Rhee et al^1). For drug treatments, log phase HCT116 cells were cultured in McCoys 5A media (Invitrogen) containing 10% BCS and 1× penicillin/streptomycin with 5 μM 5-aza-deoxycytidine (DAC) (Sigma; stock solution: 1 mM in PBS) for 96 hours, replacing media and DAC every 24 hours. Cell treatment with 300 nM Trichostatin A (Sigma; stock solution: 1.5 mM dissolved in Ethanol) was performed for 18 hours. Control cells underwent mock treatment in parallel with addition of equal volume of PBS without drugs.
Microarray analysis. Total RNA was harvested from log phase cells using the Qiagen kit according to the manufacturers instructions, including a DNAase step. RNA was quantified using the Nanoprop ND-100 followed by quality assessment with 2100 Bioanalyzer (Agilent Technologies). RNA concentrations for individual samples were greater than 200 ng/ul, with 28 s/18 s ratios greater than 2.2 and RNA integrity numbers of 10. Sample amplification and labeling procedures were carried out using the Low RNA Input Fluorescent Linear Amplification Kit (Agilent Technologies) according to the manufacturers instructions. The labeled cRNA was purified using the RNeasy mini kit (Qiagen) and quantified. RNA spike-in controls (Agilent Technologies) were added to RNA samples before amplification. 0.75 microgram of samples labeled with Cy3 or Cy5 were mixed with control targets (Agilent Technologies), assembled on Oligo Microarray, hybridized, and processed according to the Agilent microarray protocol. Scanning was performed with the Agilent G2565BA microarray scanner under default settings recommended by Agilent Technologies.
Data analysis. All arrays were subject to quality checks recommended by the manufacturer. […] The log ratio of red signal to green signal was calculated after background-subtraction and LoEss normalization as implemented in the limma package from Bioconductor (Smyth et al. 1; Smyth et al. 2). […]

colorectal cell lines = test: RT-PCR re-expression of Neuralized and FOXL2 in colorectal cancer cell lines; type: cell-based, human; details: DAC treatment, panel of colorectal cell lines
Method: Cell culture and treatment. HCT116 cells and isogenic genetic knockout derivatives were maintained as previously described (Rhee et al^1). For drug treatments, log phase HCT116 cells were cultured in McCoys 5A media (Invitrogen) containing 10% BCS and 1× penicillin/streptomycin with 5 μM 5-aza-deoxycytidine (DAC) (Sigma; stock solution: 1 mM in PBS) for 96 hours, replacing media and DAC every 24 hours. Cell treatment with 300 nM Trichostatin A (Sigma; stock solution: 1.5 mM dissolved in Ethanol) was performed for 18 hours. Control cells underwent mock treatment in parallel with addition of equal volume of PBS without drugs. Methylation and gene expression analysis. RNA was isolated with TRIzolTM Reagent (Invitrogen) according to the manufacturer's instructions. For reverse transcription-PCR (RT-PCR), 1 μg of total RNA was reverse transcribed by using Ready-To-GoTM You-Prime First-Strand Beads (Amersham Biosciences) with addition of random hexamers (0.2 μg per reaction). […] For MSP analysis, DNA was extracted following a standard phenol-chloroform extraction method. Bisulfite modification of genomic DNA was carried out using the EZ DNA methylation KitTM (Zymo Research). […] MSP was performed as previously described (Herman et al.). […]

Nc1ncn([C@H]2C[C@H](O)[C@@H](CO)O2)c(=O)n1 [DAC, 5-aza-deoxycytidine]
expression response of the 11 hypermethylated guide genes (HCT116 cells): four (SFRP1, TFF2, TFF3, and CHFR) demonstrated re-expression responses near the top
DAC induced expression for genes in the TSA non-response zone (HCT116 cells; 5 μM DAC, 96 hours): > 2 fold
re-expression of hypermethylated Neuralized and FOXL2 genes (colorectal cell lines): ability to re-express the genes

CC(/C=C/C(=O)NO)=C\[C@@H](C)C(=O)c1ccc(N(C)C)cc1 [TSA, Trichostatin A]
expression response of the 11 hypermethylated guide genes (HCT116 cells): remained within the TSA non-responsive zone
